Assay results as given in ChEMBL document CHEMBL3588847, “1,5-Diarylpyrazole and vanillin hybrids: Synthesis, biological activity and DFT studies” (Eur J Med Chem, 2015).
pEC50: −log10 of the molar value. Active and inactive are the calls of the source. The calls are words filed in the database; no cut-off is given here.

Tested on: not listed separately
Experiment: Antioxidant activity assessed as DPPH radical scavenging activity
Format: physicochemical
Settings: not given

Compound | pEC50
COc1cc(/C=N/NC(=O)c2nn(-c3ccc(Cl)cc3Cl)c(-c3ccccc3)c2C)ccc1O | 2.52
COc1cc(/C=N/NC(=O)c2nn(-c3ccnc4cc(Cl)ccc34)c(-c3ccc(Cl)cc3)c2C)ccc1O | 2.34
COc1cc(/C=N/NC(=O)c2nn(-c3ccc(Cl)c(Cl)c3)c(-c3ccc(Cl)cc3)c2C)ccc1O | 2.59
O=C1O[C@H]([C@@H](O)CO)C(O)=C1O [ASCORBIC ACID] | 2.68
COc1cc(/C=N/NC(=O)c2nn(-c3ccnc4cc(Cl)ccc34)c(-c3ccc(F)cc3)c2C)ccc1O | 2.19
COc1cc(/C=N/NC(=O)c2nn(-c3ccc(C(F)(F)F)cc3)c(-c3ccc(Br)cc3)c2C)ccc1O | 2.54
COc1cc(C(=O)O)ccc1O [VANILLIC ACID] | 1.18
COc1cc(/C=N/NC(=O)c2nn(-c3ccccc3)c(-c3ccccc3)c2C)ccc1O | 2.61
COc1cc(/C=N/NC(=O)c2nn(-c3ccc(F)c(Cl)c3)c(-c3ccc(F)cc3)c2C)ccc1O | 2.16
COc1cc(/C=N/NC(=O)c2nn(-c3ccc(F)c(Cl)c3)c(-c3ccc(Cl)cc3)c2C)ccc1O | 2.45
COc1cc(/C=N/NC(=O)c2nn(-c3ccc(Cl)cc3Cl)c(-c3ccc(Cl)cc3)c2C)ccc1O | 2.45
COc1cc(/C=N/NC(=O)c2nn(-c3ccc(C(F)(F)F)cc3)c(-c3ccc(Cl)cc3)c2C)ccc1O | 2.63
COc1cc(/C=N/NC(=O)c2nn(-c3ccc(F)cc3F)c(-c3ccc(F)cc3)c2C)ccc1O | 2.45
COc1cc(/C=N/NC(=O)c2nn(-c3ccc(Cl)cc3Cl)c(-c3ccc(C(F)(F)F)cc3)c2C)ccc1O | 2.37
COc1cc(/C=N/NC(=O)c2nn(-c3ccc(F)cc3F)c(-c3ccc(C(F)(F)F)cc3)c2C)ccc1O | 2.54

Tested on: not listed separately
Experiment: Antioxidant activity assessed as DPPH radical scavenging activity at 20 µg/ml
Format: physicochemical
Settings: not given

Compound | inhibition (INH)
COc1cc(C=O)ccc1O [VANILLIN] | 7%

Tested on: not listed separately
Experiment: Antioxidant activity assessed as DPPH radical scavenging activity at 20 mg/ml
Format: physicochemical
Settings: not given

Compound | inhibition (INH)
Cc1c(C(=O)O)nn(-c2ccc(Cl)cc2Cl)c1-c1ccc(Cl)cc1 | 17%

Tested on: not listed separately
Experiment: Antioxidant activity assessed as DPPH radical scavenging activity at […]
Format: physicochemical
Settings: not given

Compound | inhibition (INH)
COc1cc(C=O)ccc1O [VANILLIN] | 75%

Tested on: not listed separately
Experiment: Antioxidant activity assessed as AAPH radical scavenging activity by measuring Trolox equivalents after 90 mins by fluorescein probe based ORAC assay
Format: physicochemical
Settings: 1.5 h

Compound | Activity
COc1cc(/C=N/NC(=O)c2nn(-c3ccc(Cl)cc3Cl)c(-c3ccccc3)c2C)ccc1O | 1076 g⁻¹
COc1cc(/C=N/NC(=O)c2nn(-c3ccc(Cl)c(Cl)c3)c(-c3ccc(Cl)cc3)c2C)ccc1O | 432 g⁻¹
COc1cc(C(=O)O)ccc1O [VANILLIC ACID] | 2979 g⁻¹
COc1cc(/C=N/NC(=O)c2nn(-c3ccccc3)c(-c3ccccc3)c2C)ccc1O | 611 g⁻¹
COc1cc(/C=N/NC(=O)c2nn(-c3ccc(F)c(Cl)c3)c(-c3ccc(F)cc3)c2C)ccc1O | 525 g⁻¹
COc1cc(/C=N/NC(=O)c2nn(-c3ccc(F)c(Cl)c3)c(-c3ccc(Cl)cc3)c2C)ccc1O | 882 g⁻¹
COc1cc(/C=N/NC(=O)c2nn(-c3ccc(Cl)cc3Cl)c(-c3ccc(Cl)cc3)c2C)ccc1O | 634 g⁻¹
COc1cc(/C=N/NC(=O)c2nn(-c3ccc(C(F)(F)F)cc3)c(-c3ccc(Cl)cc3)c2C)ccc1O | 867 g⁻¹
COc1cc(/C=N/NC(=O)c2nn(-c3ccc(F)cc3F)c(-c3ccc(F)cc3)c2C)ccc1O | 891 g⁻¹
COc1cc(/C=N/NC(=O)c2nn(-c3ccc(Cl)cc3Cl)c(-c3ccc(C(F)(F)F)cc3)c2C)ccc1O | 401 g⁻¹
COc1cc(/C=N/NC(=O)c2nn(-c3ccc(F)cc3F)c(-c3ccc(C(F)(F)F)cc3)c2C)ccc1O | 993 g⁻¹

Tested on: Rattus norvegicus
Experiment: Hypoglycemic effect in Wistar rat model of streptozotocin-induced type-2 diabetes mellitus assessed as reduction in blood glucose level at 50 mg/kg, ig after 7 hrs
Format: functional
Settings: po

Compound | inhibition in vivo at 50 mg/kg
COc1cc(/C=N/NC(=O)c2nn(-c3ccc(Cl)cc3Cl)c(-c3ccccc3)c2C)ccc1O | 26.6%
COc1cc(/C=N/NC(=O)c2nn(-c3ccc(Cl)c(Cl)c3)c(-c3ccc(Cl)cc3)c2C)ccc1O | 33.3%
COc1cc(/C=N/NC(=O)c2nn(-c3ccc(Cl)cc3Cl)c(-c3ccc(Cl)cc3)c2C)ccc1O | 64.9%
COc1cc(/C=N/NC(=O)c2nn(-c3ccc(Cl)cc3Cl)c(-c3ccc(C(F)(F)F)cc3)c2C)ccc1O | 35.3%

Tested on: Rattus norvegicus
Experiment: Hypoglycemic effect in Wistar rat model of streptozotocin-induced type-2 diabetes mellitus assessed as reduction in blood glucose level at 5 mg/kg, ig after 7 hrs
Format: functional, organism-based
Settings: not given

Compound | Activity
COc1ccc(Cl)cc1C(=O)NCCc1ccc(S(=O)(=O)NC(=O)NC2CCCCC2)cc1 | Active
